Measurements from ChEMBL document CHEMBL2413023, “Antiparasitic hybrids of Cinchona alkaloids and bile acids” (Eur J Med Chem, 2013).
Converted amounts (≈) assume the structure as drawn.

Key:
[1] = in vitro; conditions: human, WI38 cells
Description: Selectivity index, ratio of IC50 for human WI38 cells to IC50 for Trypanosoma brucei brucei Lister 427 bloodstream form

[2] = Selectivity index, ratio of IC50 for human WI38 cells to IC50 for Leishmania mexicana mexicana MHOM/BZ/84/BEL46 promastigotes; assay type: toxicity, cell-based, WI-38; conditions: read-out: Ratio IC50
[3] = tested on: WI-38; assay: Cytotoxicity against human WI38 cells by MTT assay; assay type: cell-based
[4] = tested on: Plasmodium falciparum; assay: Antiplasmodial activity against erythrocytic stage of chloroquine-sensitive Plasmodium falciparum 3D7 assessed as parasite LDH activity by three-fold serial dilution method; assay type: functional, organism-based
[5] = Selectivity index, ratio of IC50 for human WI38 cells to IC50 for erythrocytic stage of chloroquine-sensitive Plasmodium falciparum 3D7; assay type: toxicity, cell-based, WI-38; conditions: read-out: Ratio IC50
[6] = tested on: Leishmania mexicana mexicana; assay: Antileishmanial activity against Leishmania mexicana mexicana MHOM/BZ/84/BEL46 promastigotes assessed as parasite LDH activity by three-fold serial dilution method; assay type: functional, organism-based
[7] = tested on: Trypanosoma brucei brucei; assay: Antitrypanosomal activity against Trypanosoma brucei brucei Lister 427 bloodstream form assessed as parasite LDH activity by three-fold serial dilution method; assay type: functional, organism-based

C=C[C@H]1CN2CC[C@H]1C[C@H]2[C@H](O)c1cc(CC[C@@H](C)[C@H]2CC[C@H]3[C@@H]4CC[C@@H]5C[C@H](OC(C)=O)CC[C@]5(C)[C@H]4CC[C@]23C)nc2ccc(OC)cc12
selectivity ratio [1]: 8
selectivity ratio [2]: 1.2
IC50 [3]: 16.2 µg/mL (≈ 23.2 µM)
IC50 [4]: 6.07 µg/mL (≈ 8.71 µM)
selectivity ratio [5]: 2.7
IC50 [6]: 14 µg/mL (≈ 20 µM)
IC50 [7]: 2.03 µg/mL (≈ 2.91 µM)

C=C[C@H]1CN2CC[C@H]1C[C@@H]2[C@@H](O)c1ccnc2ccc(OC)cc12 [QUINIDINE]
selectivity ratio [1]: 1.3
IC50 [3]: 11.3 µg/mL (≈ 34.8 µM)
IC50 [4]: 0.06 µg/mL (≈ 0.185 µM)
selectivity ratio [5]: 179
IC50 [6]: > 20 µg/mL
IC50 [7]: 8.42 µg/mL (≈ 26 µM)

C=C[C@H]1CN2CC[C@H]1C[C@H]2[C@H](O)c1cc(CC[C@@H](C)[C@H]2CC[C@H]3[C@@H]4CC[C@@H]5C[C@H](O)CC[C@]5(C)[C@H]4CC[C@]23C)nc2ccccc12
selectivity ratio [1]: 4.3
selectivity ratio [2]: 0.72
IC50 [3]: 9.28 µg/mL (≈ 14.8 µM)
IC50 [4]: 1.07 µg/mL (≈ 1.71 µM)
selectivity ratio [5]: 8.7
IC50 [6]: 12.8 µg/mL (≈ 20.5 µM)
IC50 [7]: 2.16 µg/mL (≈ 3.46 µM)

C=C[C@H]1CN2CC[C@H]1C[C@H]2[C@@H](O)c1cc(CC[C@@H](C)[C@H]2CC[C@H]3[C@@H]4CC[C@@H]5C[C@H](O)CC[C@]5(C)[C@H]4CC[C@]23C)nc2ccc(OC)cc12
selectivity ratio [1]: 3.3
selectivity ratio [2]: 0.64
IC50 [3]: 2.59 µg/mL (≈ 3.95 µM)
IC50 [4]: 0.68 µg/mL (≈ 1.04 µM)
selectivity ratio [5]: 3.8
IC50 [6]: 4.05 µg/mL (≈ 6.18 µM)
IC50 [7]: 0.79 µg/mL (≈ 1.21 µM)

C[C@@H]1[C@H](O)[C@@H](C)/C=C/C=C/C=C/C=C/C=C/C=C/C=C/[C@H](O[C@@H]2O[C@H](C)[C@@H](O)[C@H](N)[C@@H]2O)C[C@@H]2O[C@](O)(C[C@@H](O)C[C@@H](O)[C@H](O)CC[C@@H](O)C[C@@H](O)CC(=O)O[C@H]1C)C[C@H](O)[C@H]2C(=O)O [AMPHOTERICIN B]
IC50 [6]: 0.1 µg/mL (≈ 0.108 µM)

C=C[C@H]1CN2CC[C@H]1C[C@@H]2[C@@H](O)c1ccnc2ccccc12 [CINCHONINE]
IC50 [3]: > 20 µg/mL
IC50 [4]: 0.09 µg/mL (≈ 0.306 µM)
selectivity ratio [5]: > 222
IC50 [6]: > 20 µg/mL
IC50 [7]: > 20 µg/mL

CC[C@@]1(O)C(=O)OCc2c1cc1n(c2=O)Cc2cc3ccccc3nc2-1 [CAMPTOTHECIN]
IC50 [3]: 0.4 µg/mL (≈ 1.15 µM)

C=C[C@H]1CN2CC[C@H]1C[C@H]2[C@@H](O)c1cc(CC[C@@H](C)[C@H]2CC[C@H]3[C@@H]4[C@H](OC(C)=O)C[C@@H]5C[C@H](OC(C)=O)CC[C@]5(C)[C@H]4CC[C@]23C)nc2ccccc12
selectivity ratio [1]: 4.5
selectivity ratio [2]: 0.47
IC50 [3]: 1.93 µg/mL (≈ 2.66 µM)
IC50 [4]: 0.19 µg/mL (≈ 0.262 µM)
selectivity ratio [5]: 10.2
IC50 [6]: 4.11 µg/mL (≈ 5.67 µM)
IC50 [7]: 0.43 µg/mL (≈ 0.593 µM)

Cc1ccc(C(=O)Nc2ccc(S(=O)(=O)O)c3cc(S(=O)(=O)O)cc(S(=O)(=O)O)c23)cc1NC(=O)c1cccc(NC(=O)Nc2cccc(C(=O)Nc3cc(C(=O)Nc4ccc(S(=O)(=O)O)c5cc(S(=O)(=O)O)cc(S(=O)(=O)O)c45)ccc3C)c2)c1 [SURAMIN]
IC50 [7]: 0.11 µg/mL (≈ 0.0848 µM)

C=C[C@H]1CN2CC[C@H]1C[C@H]2[C@H](O)c1cc(CC[C@@H](C)[C@H]2CC[C@H]3[C@@H]4CC[C@@H]5C[C@H](O)CC[C@]5(C)[C@H]4CC[C@]23C)nc2ccc(OC)cc12
IC50 [3]: > 20 µg/mL
IC50 [4]: 4.24 µg/mL (≈ 6.47 µM)
IC50 [6]: > 20 µg/mL
IC50 [7]: 3.53 µg/mL (≈ 5.39 µM)

C=C[C@H]1CN2CC[C@H]1C[C@H]2[C@H](O)c1cc(CC[C@@H](C)[C@H]2CC[C@H]3[C@@H]4[C@H](O)C[C@@H]5C[C@H](O)CC[C@]5(C)[C@H]4CC[C@]23C)nc2ccc(OC)cc12
selectivity ratio [1]: 11.1
selectivity ratio [2]: 0.98
IC50 [3]: 4.57 µg/mL (≈ 6.81 µM)
IC50 [4]: 0.3 µg/mL (≈ 0.447 µM)
selectivity ratio [5]: 15.5
IC50 [6]: 4.67 µg/mL (≈ 6.96 µM)
IC50 [7]: 0.41 µg/mL (≈ 0.611 µM)

C=C[C@H]1CN2CC[C@H]1C[C@H]2[C@H](O)c1ccnc2ccc(OC)cc12 [QUININE]
selectivity ratio [1]: 1
IC50 [3]: 6.56 µg/mL (≈ 20.2 µM)
IC50 [4]: 0.2 µg/mL (≈ 0.616 µM)
selectivity ratio [5]: 32
IC50 [6]: > 20 µg/mL
IC50 [7]: 6.87 µg/mL (≈ 21.2 µM)

C=C[C@H]1CN2CC[C@H]1C[C@H]2[C@H](O)c1ccnc2ccccc12 [CINCHONIDINE]
selectivity ratio [2]: 0.96
IC50 [3]: > 20 µg/mL
IC50 [4]: 0.28 µg/mL (≈ 0.951 µM)
selectivity ratio [5]: > 71
IC50 [6]: 5.74 µg/mL (≈ 19.5 µM)
IC50 [7]: 18.3 µg/mL (≈ 62.1 µM)

C=C[C@H]1CN2CC[C@H]1C[C@H]2[C@H](O)c1cc(CC[C@@H](C)[C@H]2CC[C@H]3[C@@H]4[C@H](OC(C)=O)C[C@@H]5C[C@H](OC(C)=O)CC[C@]5(C)[C@H]4CC[C@]23C)nc2ccc(OC)cc12
selectivity ratio [1]: 3.2
selectivity ratio [2]: 1.1
IC50 [3]: 3.92 µg/mL (≈ 5.19 µM)
IC50 [4]: 0.69 µg/mL (≈ 0.914 µM)
selectivity ratio [5]: 5.6
IC50 [6]: 3.49 µg/mL (≈ 4.62 µM)
IC50 [7]: 1.22 µg/mL (≈ 1.62 µM)

C=C[C@H]1CN2CC[C@H]1C[C@H]2[C@@H](O)c1cc(CC[C@@H](C)[C@H]2CC[C@H]3[C@@H]4CC[C@@H]5C[C@H](OC(C)=O)CC[C@]5(C)[C@H]4CC[C@]23C)nc2ccccc12
selectivity ratio [1]: 5.6
selectivity ratio [2]: 0.58
IC50 [3]: 7.02 µg/mL (≈ 10.5 µM)
IC50 [4]: 2.26 µg/mL (≈ 3.39 µM)
selectivity ratio [5]: 3.1
IC50 [6]: 12.1 µg/mL (≈ 18.1 µM)
IC50 [7]: 1.26 µg/mL (≈ 1.89 µM)

C=C[C@H]1CN2CC[C@H]1C[C@H]2[C@H](O)c1cc(CC[C@@H](C)[C@H]2CC[C@H]3[C@@H]4[C@H](OC(C)=O)C[C@@H]5C[C@H](OC(C)=O)CC[C@]5(C)[C@H]4CC[C@]23C)nc2ccccc12
selectivity ratio [1]: 4.3
selectivity ratio [2]: 0.45
IC50 [3]: 1.77 µg/mL (≈ 2.44 µM)
IC50 [4]: 0.21 µg/mL (≈ 0.29 µM)
selectivity ratio [5]: 8.4
IC50 [6]: 3.91 µg/mL (≈ 5.39 µM)
IC50 [7]: 0.41 µg/mL (≈ 0.565 µM)

C=C[C@H]1CN2CC[C@H]1C[C@H]2[C@@H](O)c1cc(CC[C@@H](C)[C@H]2CC[C@H]3[C@@H]4[C@H](O)C[C@@H]5C[C@H](O)CC[C@]5(C)[C@H]4CC[C@]23C)nc2ccccc12
selectivity ratio [1]: 3.6
selectivity ratio [2]: 0.42
IC50 [3]: 1.42 µg/mL (≈ 2.22 µM)
IC50 [4]: 0.09 µg/mL (≈ 0.14 µM)
selectivity ratio [5]: 15.7
IC50 [6]: 3.39 µg/mL (≈ 5.29 µM)
IC50 [7]: 0.39 µg/mL (≈ 0.608 µM)

C=C[C@H]1CN2CC[C@H]1C[C@H]2[C@@H](O)c1cc(CC[C@@H](C)[C@H]2CC[C@H]3[C@@H]4[C@H](OC(C)=O)C[C@@H]5C[C@H](OC(C)=O)CC[C@]5(C)[C@H]4CC[C@]23C)nc2ccc(OC)cc12
selectivity ratio [1]: 7.1
selectivity ratio [2]: 0.75
IC50 [3]: 3.1 µg/mL (≈ 4.11 µM)
IC50 [4]: 0.38 µg/mL (≈ 0.503 µM)
selectivity ratio [5]: 8.1
IC50 [6]: 4.15 µg/mL (≈ 5.5 µM)
IC50 [7]: 0.44 µg/mL (≈ 0.583 µM)

C=C[C@H]1CN2CC[C@H]1C[C@H]2[C@H](O)c1cc(CC[C@@H](C)[C@H]2CC[C@H]3[C@@H]4CC[C@@H]5C[C@H](OC(C)=O)CC[C@]5(C)[C@H]4CC[C@]23C)nc2ccccc12
selectivity ratio [1]: 4.4
selectivity ratio [2]: 0.46
IC50 [3]: 5.58 µg/mL (≈ 8.37 µM)
IC50 [4]: 1.21 µg/mL (≈ 1.81 µM)
selectivity ratio [5]: 4.6
IC50 [6]: 12.2 µg/mL (≈ 18.3 µM)
IC50 [7]: 1.27 µg/mL (≈ 1.9 µM)

C=C[C@H]1CN2CC[C@H]1C[C@H]2[C@@H](O)c1cc(CC[C@@H](C)[C@H]2CC[C@H]3[C@@H]4CC[C@@H]5C[C@H](O)CC[C@]5(C)[C@H]4CC[C@]23C)nc2ccccc12
selectivity ratio [1]: 1.3
selectivity ratio [2]: 0.97
IC50 [3]: 3.97 µg/mL (≈ 6.35 µM)
IC50 [4]: 0.86 µg/mL (≈ 1.38 µM)
selectivity ratio [5]: 4.6
IC50 [6]: 4.08 µg/mL (≈ 6.53 µM)
IC50 [7]: 3.01 µg/mL (≈ 4.82 µM)

C=C[C@H]1CN2CC[C@H]1C[C@H]2[C@@H](O)c1cc(CC[C@@H](C)[C@H]2CC[C@H]3[C@@H]4[C@H](O)C[C@@H]5C[C@H](O)CC[C@]5(C)[C@H]4CC[C@]23C)nc2ccc(OC)cc12
selectivity ratio [1]: 5.3
selectivity ratio [2]: 0.51
IC50 [3]: 1.95 µg/mL (≈ 2.91 µM)
IC50 [4]: 0.14 µg/mL (≈ 0.209 µM)
selectivity ratio [5]: 14
IC50 [6]: 3.86 µg/mL (≈ 5.75 µM)
IC50 [7]: 0.37 µg/mL (≈ 0.551 µM)

C=C[C@H]1CN2CC[C@H]1C[C@H]2[C@@H](O)c1cc(CC[C@@H](C)[C@H]2CC[C@H]3[C@@H]4CC[C@@H]5C[C@H](OC(C)=O)CC[C@]5(C)[C@H]4CC[C@]23C)nc2ccc(OC)cc12
selectivity ratio [1]: 2.6
selectivity ratio [2]: 0.57
IC50 [3]: 7.79 µg/mL (≈ 11.2 µM)
IC50 [4]: 0.81 µg/mL (≈ 1.16 µM)
selectivity ratio [5]: 9.7
IC50 [6]: 13.7 µg/mL (≈ 19.6 µM)
IC50 [7]: 2.97 µg/mL (≈ 4.26 µM)

C=C[C@H]1CN2CC[C@H]1C[C@H]2[C@H](O)c1cc(CC[C@@H](C)[C@H]2CC[C@H]3[C@@H]4[C@H](O)C[C@@H]5C[C@H](O)CC[C@]5(C)[C@H]4CC[C@]23C)nc2ccccc12
selectivity ratio [1]: 4.3
selectivity ratio [2]: 0.5
IC50 [3]: 1.71 µg/mL (≈ 2.67 µM)
IC50 [4]: 0.23 µg/mL (≈ 0.359 µM)
selectivity ratio [5]: 7.5
IC50 [6]: 3.45 µg/mL (≈ 5.38 µM)
IC50 [7]: 0.4 µg/mL (≈ 0.624 µM)
